From US20040077607A1 (priority 2002, published 2004)
Where “and” joins values, the source holds several entries; their conditions need not be identical. Identical values can stand only once. Like-named read-outs stand apart in the source and are kept apart here.

Key:
[1] = tested on: Josiach strain of Lassa Virus; parameters: species or system CBA mice; details: mouse, in vivo
[2] = 37° C.
[3] = for mean percent hydrolysis in plasma: 250 μM
[4] = 100 μM, mouse liver homogenate
[5] = simulated intestinal fluid, 100 μM, 37° C.
[6] = female, Balb/c, mouse, in vivo, iv
[7] = mouse, in vivo; cited from earlier work
[8] = rat, in vivo; cited from earlier work
[9] = dog, in vivo; cited from earlier work
[10] = in vivo; cited from earlier work
[11] = not given; remark: listed apart in the source
[12] = after i.v. 40 mg/kg d4T, Balb/c mice, plasma; mean ± S.E.M. (in parentheses)
[13] = after oral 100 mg/kg d4T-5′-[p-bromophenyl methoxyalaninyl phosphate], Balb/c mice, plasma; mean ± S.E.M. (in parentheses)
in vivo [14] = details: female, Balb/c, mouse, iv, 100 mg/kg
in vivo [15] = details: female, Balb/c, mouse, iv, 75 mg/kg, Balb/c mice, plasma; for AUC / clearance / Cmax / Vd: after i.v. 75 mg/kg Ala-d4T-MP; for clearance: CL; for Vd: Vss; for half-life: t1/2, after i.v. 75 mg/kg Ala-d4T-MP
in vivo [16] = details: female, Balb/c, mouse, po, 100 mg/kg, Balb/c mice, plasma; for AUC / Cmax / Tmax: after oral 100 mg/kg d4T-5′-[p-bromophenyl methoxyalaninyl phosphate]; for half-life: t1/2, after oral 100 mg/kg d4T-5′-[p-bromophenyl methoxyalaninyl phosphate]
[17] = model fit after i.v. 75 mg/kg Ala-d4T-MP, C.V. of modeling in parentheses, 75 mg/kg
[18] = estimate from composite pooled data

## COC(=O)C(C)NP(=O)(OC[C@@H]1C=C[C@H](n2cc(C)c(=O)[nH]c2=O)O1)Oc1ccc(Br)cc1 (stereo partly drawn) [d4T-5′-[p-bromophenylmethoxyalaninyl phosphate]]
[1]
  median survival: > 21 days
  mice remaining healthy beyond the 21-day observation period: 9 mice
  mice surviving beyond the 21 day observation period: 6 mice
  probability of survival at 21 days: 75% and 90%
250 μM
  stability in plasma: very unstable
  time to complete decomposition in plasma: ≤ 30 min
250 μM, after 5 minutes
  decomposed following incubation with plasma: over 95%
[2]; 250 μM
  stability in whole blood: very unstable
  time to complete decomposition in whole blood: ≤ 30 min
[2]; 250 μM, 5 minutes
  decomposed in whole blood: 68%
[2]; 250 μM, 10 minutes
  decomposed in whole blood: 87%
[2]; 250 μM, 15 minutes
  decomposed in whole blood: 92%
[3]; EDTA (1 mM; arylesterase), 5 min
  mean percent hydrolysis in plasma: 99%
[3]; EDTA (1 mM; arylesterase), 10 min
  mean percent hydrolysis in plasma: 100%
[3]; EDTA (1 mM; arylesterase), 15 min
  mean percent hydrolysis in plasma: 100%
[3]; EDTA (1 mM; arylesterase), 30 min
  mean percent hydrolysis in plasma: 100%
[3]; EDTA (1 mM; arylesterase), 60 min
  mean percent hydrolysis in plasma: 100%
[3]; EDTA (1 mM; arylesterase), 120 min
  mean percent hydrolysis in plasma: 100%
[3]; EDTA, 37° C.
  decomposition in plasma, effect of EDTA: not affected
[3]; No inhibitor, 5 min
  mean percent hydrolysis in plasma: 95%
[3]; No inhibitor, 10 min
  mean percent hydrolysis in plasma: 98%
[3]; No inhibitor, 15 min
  mean percent hydrolysis in plasma: 99%
[3]; No inhibitor, 30 min
  mean percent hydrolysis in plasma: 100%
[3]; No inhibitor, 60 min
  mean percent hydrolysis in plasma: 100%
[3]; No inhibitor, 120 min
  mean percent hydrolysis in plasma: 100%
[3]; Physostigmine (0.1 mM; cholinesterase), 5 min
  mean percent hydrolysis in plasma: 43%
[3]; Physostigmine (0.1 mM; cholinesterase), 10 min
  mean percent hydrolysis in plasma: 65%
[3]; Physostigmine (0.1 mM; cholinesterase), 15 min
  mean percent hydrolysis in plasma: 76%
[3]; Physostigmine (0.1 mM; cholinesterase), 30 min
  mean percent hydrolysis in plasma: 89%
[3]; Physostigmine (0.1 mM; cholinesterase), 60 min
  mean percent hydrolysis in plasma: 100%
[3]; Physostigmine (0.1 mM; cholinesterase), 120 min
  mean percent hydrolysis in plasma: 100%
[3]; physostigmine 0.1 mM, 37° C.
  decomposition in plasma, effect of physostigmine: partially inhibited
[4]
  time to decomposition after incubation with liver homogenate: ≤ 30 min
[5]; within 2 hours
  decomposed in intestinal fluid: approximately 94%
[6]
  fraction converted to Ala-d4T-MP: 23%
  fraction converted to d4T: 24%
[7]
  acute or subacute toxicity: very well tolerated without any detectable acute or subacute toxicity
  toxicity on daily administration: not associated with any detectable toxicity
[8]
  acute or subacute toxicity: very well tolerated without any detectable acute or subacute toxicity
  toxicity on daily administration: not associated with any detectable toxicity
[9]
  tolerability: very well tolerated
[10]
  tolerability: very well tolerated

## Cc1cn([C@H]2C=C[C@@H](CO)O2)c(=O)[nH]c1=O [d4T, 2′,3′-didehydro-2′,3′-dideoxythymidine]
[11]; after i.v. 75 mg/kg Ala-d4T-MP, Balb/c mice, plasma, mean ± S.E.M. (in parentheses)
  Tmax: (5.0 ± 1.2) min
[11]; [17]
  CLme (elimination of d4T derived from Ala-d4T-MP): 88.4 ml/min/kg and 88.4 (13.0%) ml/min/kg
[12]
  AUC: (12173.6 ± 559.5) μM · min
[13]
  AUC: (5928.4 ± 294.6) μM · min
  Cmax: 29.5 µM
  Tmax: (45.2 ± 5.2) min
  t1/2: (102.6 ± 3.8) min

## Cc1cn([C@H]2C=C[C@@H](COP(=O)(O)N[C@@H](C)C(=O)O)O2)c(=O)[nH]c1=O [Ala-d4T-MP, alaninyl-d4T-monophosphate]
100 μM, for 1 day
  stability in plasma: stable
[2]; 100 μM, for 1 day
  stability in whole blood: stable
[5]
  stability in intestinal fluid: stable
[11]; after i.v. 75 mg/kg Ala-d4T-MP
  CLm1 as share of the total systemic clearance: 99%
[11]; after intravenous administration of Ala-d4T-MP
  fraction converted to d4T: 15%
[11]; [17]
  CLml (metabolic clearance of Ala-d4T-MP / formation clearance of d4T): 15.6 ml/min/kg and 15.6 (16.6%) ml/min/kg
  CLpd (distribution of Ala-d4T-MP to the extravascular compartment): 4.7 ml/min/kg and 4.7 (44.7%) ml/min/kg
In vivo [14]; AUC
  AUC: 47.6 µM·h
In vivo [14]; Cmax
  Cmax: 67.4 µM
In vivo [14]; t1/2
  half-life: 129 min
In vivo [14]; tmax
  Tmax: 5.9 min
In vivo [15]; [18]
  AUC: 194 µM·h
  clearance: 15.8 mL/min/kg
  Cmax: 1210 µM
  Vd: 0.276 L/kg
  half-life: 28.5 min
In vivo [15]; mean ± S.E.M. (in parentheses)
  AUC: 196 µM·h
  clearance: 15.7 mL/min/kg
  Cmax: 1660 µM
  Vd: 0.413 L/kg
  half-life: 91.5 min
In vivo [16]; [18]
  AUC: 22.5 µM·h
  Cmax: 12.7 µM
  half-life: 66.4 min
  Tmax: 10.3 min
In vivo [16]; mean ± S.E.M. (in parentheses)
  AUC: 22.6 µM·h
  Cmax: 15.6 µM
  half-life: 56.1 min
  Tmax: 9.3 min
